Source: publication PMC8486872, “A rational blueprint for the design of chemically-controlled protein switches” (Nature Communications, 2021)
“And” between values parts separate entries of the source, which are not always exact repeats. Equal values may be shown once.

How the values were obtained:
Assay type in all cases: cell-based
[1] = system: SEAP expression in HEK293T cells; assay: Background signal of SEAP reporter and single-construct controls
Protocol: Supplementary Figure 7: Dose-dependence and reversibility characterization of CDHs in CDH- […]
(§1) transfected with SEAP reporter S132 and treated with 1 µM Drugs 12 hours post transfection.
(§2) Quantification of SEAP was performed 24 hours after drug treatment. b) Drug specificity of CDH-TFs. […]
Background signal of SEAP reporter in the absence of the CDH-GEMS system. HEK293T cells were transfected with pLS566 SEAP reporter plasmids and treated with drugs. Quantification of SEAP was performed 24 hours post drug treatment. f) SEAP activity upon transfecting single or paired […]
Quantification of SEAP activity of three CDHs with DMSO (dark color), specific (light color) and unspecific drug treatment (gray). […]
(culture medium) in panels of b, c, f and g were collected every 12 hours. Values were normalized to zero based on the SEAP expression at time 0. a, b, e, f, g) The bar charts show the mean ± s.d. of n = 3 biologically independent samples overlaid with a scatter dot plot of the original data points.

[2] = system: Gal4/UAS SEAP expression in HEK293T cells; assay: Drug specificity of CDH-TFs; conditions: Suppl Fig 7b
Protocol: Supplementary Figure 7: Dose-dependence and reversibility characterization of CDHs in CDH-
a) Background signal of SEAP reporter in the absence of the CDH-TF system. HEK239T cells were
as §1, §2

[3] = system: SEAP and Luciferase expression in HEK293T cells; assay: MIMO designer cells (AIR-1/2-GEMS + CDH-3-TF); conditions: for Luciferase: Fig5c, turn OFF via CDH-3-TF; for AIR-1-GEMS controlled SEAP expression: Fig S13c; for AIR-2-GEMS controlled SEAP expression: Fig S13e
Description: We first engineered MIMO cells to respond to two drugs with distinct outputs (Fig. 5a) by co-transfecting the CDH-3-TF with either AIR-1-GEMS (Fig. 5b) or AIR-2-GEMS (Fig. 5c).
Fig. 5 Orthogonal chemical switches enable implementation of multi-input multi-output control modes in mammalian cells. a Scheme of multi-inputs multi-outputs (MIMO) designer cells where two drugs control two different outputs. b, c Cells were co-transfected with AIR-1/2-GEMS and CDH-3-TF regulate SEAP and Luciferase expression, respectively. […] AIR-1/2-GEMS coupled with SEAP expression circuits were co-transfected with CDH-1/2-TF circuits which control the Luciferase production. Respective drug concentrations ranged from 0.001 nM to 1 µM. All values presented are mean ± s.d. of three replicates and curves were fitted by four-parameters nonlinear regression. b, c, e, f, h, i Source data are available in the source data file.
Supplementary Figure 13: Orthogonal chemical switches enable implementation of multi-input multi-output control modes in mammalian cells. a) Dual drug toxicity tests in 293T cells. […]
concentrations of 1 nM, 10 nM, 100 nM and 1000 nM each drug in cell culture medium. CCK8 assay was performed 24 hours after drug treatment. Each bar represents the mean of three biological replicates ± s.d, overlaid with a scatter dot plot of the original data points. b-c) Cells were co-transfected with AIR-1-GEMS and CDH-3-TF regulate SEAP and Luciferase expression, respectively. Drug concentrations ranged from 0.001 nM to 1 µM and different combinations were added depending on the protein components, Drug-1 only (b) and Drug-3 only (c). d-e) Cells were co-transfected with AIR-2-GEMS and CDH-3-TF regulate SEAP and Luciferase expression, respectively. Drug concentrations ranged from 0.001 nM to 1 µM and different combinations were added depending on the protein […]
1-TF and CDH-3-TF circuits. Drug-1 concentrations ranged from 0.001 nM to 1 µM (left) and 1 µM Drug-1 with serial diluted Drug-3 from 0.001 nM to 1 µM (right). g) Quantification of SEAP activity controlled by CDH-1-GEMS and CDH-3-GEMS circuits. Drug-1 concentrations ranged from 0.001 nM to 1 µM (left) and Drug-3 dilution along with 1 µM Drug-1 (right). h-i) Quantification of SEAP and Luciferase activities under Drug-1. AIR-1-GEMS coupled with SEAP expression circuits (i) and CDH-1-TF circuits which control the Luciferase production (j). j-k) Quantification of SEAP and Luciferase activities under Drug-2. AIR-2-GEMS coupled with SEAP expression circuits (k) and CDH-2-TF circuits which control the Luciferase production (l). b-k) Each data point represents the mean of n = 3 biological replicates, and the dose-dependent curve were fitted using four-parameter nonlinear regression.

[4] = Fig5c Luciferase via CDH-3-TF, four-parameter fit

SMILES: COc1cc2c(cc1OC(C)C)[C@H](c1ccc(Cl)cc1)N(c1ccc(N(C)C[C@H]3CC[C@H](N4CCN(C)C(=O)C4)CC3)cc1)C(=O)C2 [Drug-3, NVP-CGM097]
- Reporter background signal ([1]; Suppl Fig 7a, TF reporter (S132) only): 2.305 and 2.301 and 2.45
- Reporter background signal ([1]; Suppl Fig 7e, GEMS reporter (pLS566) only): 5.089 and 3.395 and 2.755
- Reporter signal, drug specificity ([2]; CDH1): 58.9096 and 56.9625 and 57.522
- Reporter signal, drug specificity ([2]; CDH2): 99.5028 and 95.5176 and 91.4654
- Reporter signal, drug specificity ([2]; CDH3): 52.7796 and 52.4144 and 49.1641
- Bottom (best-fit value) [3, 4]: 2526
- HillSlope (best-fit value) [3, 4]: -0.2874
- Span (best-fit value) [3, 4]: 8582
- Top (best-fit value) [3, 4]: 11108
- logIC50 (best-fit value) ([3]; Fig5c Luciferase via CDH-3-TF, four-parameter fit, drug in nM): 0.378
- Luciferase ([3]; 0.001 nM): 11408 and 10803 and 9477
- Luciferase ([3]; 0.01 nM): 8964 and 10094 and 8469
- Luciferase ([3]; 0.05 nM): 9839 and 9595 and 9040
- Luciferase ([3]; 0.1 nM): 9399 and 10012 and 6733
- Luciferase ([3]; 0.5 nM): 8698 and 9248 and 7194
- Luciferase ([3]; 1 nM): 7508 and 6014 and 5224
- Luciferase ([3]; 5 nM): 7040 and 7013 and 4899
- Luciferase ([3]; 50 nM): 6881 and 6483 and 4547
- Luciferase ([3]; 100 nM): 6853 and 5994 and 4849
- Luciferase ([3]; 500 nM): 3847 and 3669 and 3338
- Luciferase ([3]; 1000 nM): 2560 and 2436 and 2236
- CDH-3-TF controlled Luciferase expression ([3]; Fig S13c (with AIR-1-GEMS), Drug-3 0.01 nM): 74322 RLU and 90639 RLU and 90152 RLU
- CDH-3-TF controlled Luciferase expression ([3]; Fig S13c (with AIR-1-GEMS), Drug-3 0.1 nM): 79497 RLU and 97593 RLU and 89748 RLU
- CDH-3-TF controlled Luciferase expression ([3]; Fig S13c (with AIR-1-GEMS), Drug-3 1 nM): 92895 RLU and 90324 RLU and 97096 RLU
- CDH-3-TF controlled Luciferase expression ([3]; Fig S13c (with AIR-1-GEMS), Drug-3 3.14 nM): 89025 RLU and 81214 RLU and 83886 RLU
- CDH-3-TF controlled Luciferase expression ([3]; Fig S13c (with AIR-1-GEMS), Drug-3 10 nM): 71915 RLU and 80976 RLU and 86610 RLU
- CDH-3-TF controlled Luciferase expression ([3]; Fig S13c (with AIR-1-GEMS), Drug-3 31.4 nM): 73972 RLU and 79521 RLU and 71327 RLU
- CDH-3-TF controlled Luciferase expression ([3]; Fig S13c (with AIR-1-GEMS), Drug-3 100 nM): 58208 RLU and 70422 RLU and 71065 RLU
- CDH-3-TF controlled Luciferase expression ([3]; Fig S13c (with AIR-1-GEMS), Drug-3 314 nM): 42892 RLU and 48456 RLU and 50289 RLU
- CDH-3-TF controlled Luciferase expression ([3]; Fig S13c (with AIR-1-GEMS), Drug-3 1000 nM): 30804 RLU and 29063 RLU and 25322 RLU
- AIR-1-GEMS controlled SEAP expression ([3]; Drug-3 0.01 nM): 2.627 U/L and 3.059 U/L and 3.456 U/L
- AIR-1-GEMS controlled SEAP expression ([3]; Drug-3 0.1 nM): 2.503 U/L and 2.294 U/L and 2.87 U/L
- AIR-1-GEMS controlled SEAP expression ([3]; Drug-3 1 nM): 2.418 U/L and 1.987 U/L and 3.339 U/L
- AIR-1-GEMS controlled SEAP expression ([3]; Drug-3 3.14 nM): 2.659 U/L and 2.285 U/L and 3.202 U/L
- AIR-1-GEMS controlled SEAP expression ([3]; Drug-3 10 nM): 2.675 U/L and 2.964 U/L and 4.021 U/L
- AIR-1-GEMS controlled SEAP expression ([3]; Drug-3 31.4 nM): 3.041 U/L and 3.191 U/L and 3.396 U/L
- AIR-1-GEMS controlled SEAP expression ([3]; Drug-3 100 nM): 2.602 U/L and 2.779 U/L and 2.696 U/L
- AIR-1-GEMS controlled SEAP expression ([3]; Drug-3 314 nM): 2.611 U/L and 3.076 U/L and 2.832 U/L
- AIR-1-GEMS controlled SEAP expression ([3]; Drug-3 1000 nM): 3.25 U/L and 2.611 U/L and 2.639 U/L
- CDH-3-TF controlled Luciferase expression ([3]; Fig S13e (with AIR-2-GEMS), Drug-3 0.01 nM): 41565 RLU and 51927 RLU and 50033 RLU
- CDH-3-TF controlled Luciferase expression ([3]; Fig S13e (with AIR-2-GEMS), Drug-3 0.1 nM): 58083 RLU and 52382 RLU and 52587 RLU
- CDH-3-TF controlled Luciferase expression ([3]; Fig S13e (with AIR-2-GEMS), Drug-3 1 nM): 58208 RLU and 58951 RLU and 60752 RLU
- CDH-3-TF controlled Luciferase expression ([3]; Fig S13e (with AIR-2-GEMS), Drug-3 3.14 nM): 50716 RLU and 61071 RLU and 59090 RLU
- CDH-3-TF controlled Luciferase expression ([3]; Fig S13e (with AIR-2-GEMS), Drug-3 10 nM): 56023 RLU and 57202 RLU and 60529 RLU
- CDH-3-TF controlled Luciferase expression ([3]; Fig S13e (with AIR-2-GEMS), Drug-3 31.4 nM): 53333 RLU and 47578 RLU and 50640 RLU
- CDH-3-TF controlled Luciferase expression ([3]; Fig S13e (with AIR-2-GEMS), Drug-3 100 nM): 44259 RLU and 48370 RLU and 51647 RLU
- CDH-3-TF controlled Luciferase expression ([3]; Fig S13e (with AIR-2-GEMS), Drug-3 314 nM): 32705 RLU and 39602 RLU and 35080 RLU
- CDH-3-TF controlled Luciferase expression ([3]; Fig S13e (with AIR-2-GEMS), Drug-3 1000 nM): 15038 RLU and 22579 RLU and 17745 RLU
- AIR-2-GEMS controlled SEAP expression ([3]; Drug-3 0.01 nM): 23.8276 U/L and 27.0293 U/L and 24.7478 U/L
- AIR-2-GEMS controlled SEAP expression ([3]; Drug-3 0.1 nM): 31.2293 U/L and 29.7436 U/L and 28.9473 U/L
- AIR-2-GEMS controlled SEAP expression ([3]; Drug-3 1 nM): 33.4988 U/L and 33.4382 U/L and 38.599 U/L
- AIR-2-GEMS controlled SEAP expression ([3]; Drug-3 3.14 nM): 29.7735 U/L and 33.7772 U/L and 32.4262 U/L
- AIR-2-GEMS controlled SEAP expression ([3]; Drug-3 10 nM): 34.6343 U/L and 33.3124 U/L and 32.8022 U/L
- AIR-2-GEMS controlled SEAP expression ([3]; Drug-3 31.4 nM): 36.5713 U/L and 29.6375 U/L and 31.1491 U/L
- AIR-2-GEMS controlled SEAP expression ([3]; Drug-3 100 nM): 34.5656 U/L and 34.2561 U/L and 36.2322 U/L
- AIR-2-GEMS controlled SEAP expression ([3]; Drug-3 314 nM): 30.9331 U/L and 30.4872 U/L and 34.4499 U/L
- AIR-2-GEMS controlled SEAP expression ([3]; Drug-3 1000 nM): 13.1028 U/L and 12.5357 U/L and 11.75 U/L
- IC50 ([3]; Homo sapiens, HEK-293T, Fig5c Luciferase turn OFF via CDH-3-TF, four-parameter fit, read-out: IC50 (best-fit value)): 2.39 nM
